In patent US20220040316A1, “TRIPLE COMBINATION THERAPIES FOR TARGETING MITOCHONDRIA AND KILLING CANCER STEM CELLS” (LUNELLA BIOTECH, INC., priority 2018, published 2022):
“Also recorded” adds a separate entry of the source.

Columns and labels:
U937 cells = U937 cells incubated 15 minutes in media containing 3 μM Vitamin C; cited from earlier work
MCF7 cells [1] = test: Metabolic flux analysis (Seahorse XFe96, OCR and ECAR); assay type: cell-based, human
Method: Metabolic Flux Analysis: Real-time oxygen consumption rates (OCR) and extracellular acidification rates (ECAR) rates in MCF7 cells were determined using the Seahorse Extracellular Flux (XFe96) analyzer (Seahorse Bioscience, USA). Briefly, 1.5×10^4 cells per well were seeded into XFe96 well cell culture plates, and incubated overnight to allow cell attachment. Then, cells were treated with antibiotics for 72 h. Vehicle-alone control cells were processed in parallel. After 72 hours of incubation, cells were washed in pre-warmed XF assay media (or for OCR measurement, XF assay media supplemented with 10 mM glucose, 1 mM Pyruvate, 2 mM L-glutamine and adjusted at 7.4 pH). Cells were then maintained in 175 μL/well of XF assay media at 37° C., in a non-CO2 incubator for 1 hour. During the incubation time, we loaded 25 μL of 80 mM glucose, 9 μM oligomycin, and 1M 2-deoxyglucose (for ECAR measurement) or 10 μM oligomycin, 9 μM FCCP, 10 μM rotenone, 10 μM antimycin A (for OCR measurement), in XF assay media into the injection ports in the XFe96 sensor cartridge. Measurements were normalized by protein content (Bradford assay). Data sets were analyzed using XFe96 software and GraphPad Prism software, using one-way ANOVA and Student's t-test calculations. All experiments were performed in quintuplicate, three times independently.

rat heart = settings: Vitamin C alone, hypoxia, previous studies; cited from earlier work
[2] = oral administration; cited from earlier work
senescent fibroblasts = settings: azithromycin by itself; cited from earlier work
MCF7 cells [3] = test: Mammosphere formation assay (MFE, CSC propagation) in MCF7 cells; assay type: cell-based, human
Method: The data represents mammosphere counts after exposure to a compound, as a percentage of a control. The compounds were tested at concentrations of 1.5 μM, 3 μM, 6 μM, and 12 μM.
Mammosphere Formation Assay: A single cell suspension was prepared using enzymatic (1× Trypsin-EDTA, Sigma Aldrich, #T3924), and manual disaggregation (25 gauge needle). Cells were plated at a density of 500 cells/cm2 in mammosphere medium (DMEM-F12+B27+20 ng/ml EGF+PenStrep) under non-adherent conditions, in culture dishes pre-coated with (2-hydroxyethylmethacrylate) (poly-HEMA, Sigma, #P3932), called “tumor-sphere plates”. Vehicle alone (DMSO) control cells were processed in parallel. Cells were grown for 5 days and maintained in a humidified incubator at 37° C. After 5 days of culture, 3D mammospheres >50 μm were counted using an eye piece (“graticule”), and the percentage of cells plated which formed spheres was calculated and is referred to as percent mammosphere formation (MFE, and was normalized to one (1=100% MSF).

CSCs = test: Inhibition of CSC propagation / CSC inhibition activity (assay not specified); assay type: cell-based
[4] = tested on: breast cancer tumor samples; test: ABC trial pilot study: CSC markers in tumor samples after oral doxycycline; assay type: in vivo, human
Method: Doxycycline impacts cancer growth through inhibition of CSC propagation with an IC-50 between 2-to-10 μM. The Antibiotic for Breast Cancer (ABC) trial was conducted at The University of Pisa Hospital. The ABC trial aimed to assess the anti-proliferative and anti-CSC mechanistic actions of doxycycline in early breast cancer patients. […] A pilot study of the ABC trial confirmed that doxycycline treatment successfully decreases the expression of CSC markers in breast cancer tumor samples. […] This represents a 90% positive response rate.

MCF7 cells [5] = test: Cellular retention by green auto-fluorescence; assay type: cell-based, human; settings: 10 μM, 72 hours, washed with PBS
Method: FIGS. 16A-16C are images comparing the cellular retention of the doxycycline-myristate conjugate, to unconjugated doxycycline. MCF7 cells were cultured in tissue culture media in the presence of either therapeutic agent (i.e., the doxycycline-myristate conjugate or unconjugated doxycycline), at a concentration of 10 μM, for 72 hours. Then, the cells were washed with PBS and any therapeutic agent retained within the cells was visualized by green auto-fluorescence, from the excitation of the tetracycline ring structure. Control cells were incubated with vehicle-alone. […] The original color in the images has been inverted, to […], and the darker regions of FIG. 16B indicate increased cellular retention of the conjugated therapeutic agent.

BJ cells = test: Cell viability, bulk BJ cells; assay type: cell-based; settings: range of concentrations up to 20 μM
Excerpt: (§1) Embodiments of therapeutic agents conjugated with targeting signals have shown less toxicity in bulk cancer cells and normal fibroblasts compared to unconjugated therapeutic agents. For example, FIGS. 17A and 17B show cell viability data for doxycycline and the doxycycline-myristate conjugate shown as compound [1], for bulk MCF7 cells and bulk BJ cells, respectively. The data represents cell viability expressed as a percentage of a control. […] Similar behavior has been seen in other therapeutic agents conjugated with targeting signals.

MCF7 cells [6] = test: Cell viability, bulk MCF7 cells; assay type: cell-based, human; settings: range of concentrations up to 20 μM
Excerpt: as §1

[7] = MCF7 monolayers pre-treated 3-days, doxycycline 1 μM, azithromycin 1 μM, Vitamin C 250 μM as applicable, vs control
[8] = breast cancer patients treated with doxycycline

O=C1O[C@H]([C@@H](O)CO)C(O)=C1O [Vit C, Ascorbic Acid]
Vitamin C level reached in mitochondria (U937 cells): 5 mM | ATP production / ATP levels (MCF7 cells [1]; [7]): significantly increased | basal respiration (MCF7 cells [1]; [7]): significantly increased | glycolysis (ECAR) (MCF7 cells [1]; [7]): significantly increased | glycolytic reserve (MCF7 cells [1]; [7]): significantly increased | glycolytic reserve capacity (MCF7 cells [1]; [7]): decreasing | maximal respiration (MCF7 cells [1]; [7]): significantly increased | oxidative mitochondrial metabolism (OCR) (MCF7 cells [1]; [7]): significantly increased; also recorded: increases | increase of mitochondrial ATP production (MCF7 cells [1]; Vitamin C alone, MCF7 cells): up to 2 fold | increase of mitochondrial ATP production (rat heart): up to 1.5 fold | peak Vitamin C concentration in blood/serum/plasma [2]: about 250

CC[C@H]1OC(=O)[C@H](C)[C@@H](O[C@H]2C[C@@](C)(OC)[C@@H](O)[C@H](C)O2)[C@H](C)[C@@H](O[C@@H]2O[C@H](C)C[C@H](N(C)C)[C@H]2O)[C@](C)(O)C[C@@H](C)CN(C)[C@H](C)[C@@H](O)[C@]1(C)O [azithromycin]
efficiency of senolytic activity (removal of senescent fibroblasts) (senescent fibroblasts): ~97% | inhibition of mammosphere formation (MCF7 cells [3]; drug alone at low concentrations (0.1 μM and 1 μM)): little or no effect

CCCCCCCCCCCCCC(=O)N(C)[C@H]1C[C@@H](C)O[C@@H](O[C@@H]2[C@@H](C)[C@H](O[C@H]3C[C@@](C)(OC)[C@@H](O)[C@H](C)O3)[C@@H](C)C(=O)O[C@H](CC)[C@@](C)(O)[C@H](O)[C@@H](C)N(C)C[C@H](C)C[C@@]2(C)O)[C@@H]1O [compound [15]]
potency and selectivity for CSCs compared to azithromycin alone (CSCs): improved potency and selectivity

C[C@H]1c2cccc(O)c2C(=O)C2=C(O)[C@]3(O)C(=O)C(C(N)=O)=C(O)[C@@H](N(C)C)[C@@H]3[C@@H](O)[C@@H]21 [doxycycline]
positive response rate (CD44) [4, 8]: 90% | rise in CD44, one patient [4, 8]: 15% | decrease in the stemness marker CD44, post-doxycycline vs pre-doxycycline tumor samples ([4]; early breast cancer patients, short-term pre-operative oral doxycycline): 40%

CCCCCCCCCCCCCC(=O)Nc1ccc2c(c1O)C(=O)C1=C(O)[C@]3(O)C(=O)C(C(N)=O)=C(O)[C@@H](N(C)C)C3[C@@H](O)C1[C@H]2C (stereo partly drawn) [doxycycline-myristate conjugate, (4S,5S,6R,12aS)-4-(dimethylamino)-3,5,10,12,12a-pentahydroxy-6-methyl-1,11-dioxo-9-(tetradecanoylamino)-4a,5,5a,6-tetrahydro-4H-tetracene-2-carboxamide]
CSC inhibition activity compared with the unconjugated antibiotic (CSCs; fatty acid conjugates (myristate where stated)): better CSC inhibitory properties | cellular retention compared to doxycycline alone (MCF7 cells [5]): significantly improved cellular retention | toxicity (cell viability as percentage of control) compared with doxycycline (BJ cells): less toxic | potency in mammosphere assay compared with unconjugated doxycycline (MCF7 cells [3]; MCF7, 1.5 μM, 3 μM, 6 μM and 12 μM, mammosphere counts as percentage of control): more potent | times more potent than doxycycline for inhibiting CSC propagation (MCF7 cells [3]; from IC50 values, MCF7 mammosphere assay): over 5 times | toxicity (cell viability as percentage of control) compared with doxycycline (MCF7 cells [6]): less toxic
